This experiment concerns the target T1, Tumor necrosis factor receptor-associated factor 4 (TRAF4) (Homo sapiens, UniProt Q9BUZ4).
T1 construct: GFP-TRAF4 (MST)
T1 sequence (Q9BUZ4 1-470): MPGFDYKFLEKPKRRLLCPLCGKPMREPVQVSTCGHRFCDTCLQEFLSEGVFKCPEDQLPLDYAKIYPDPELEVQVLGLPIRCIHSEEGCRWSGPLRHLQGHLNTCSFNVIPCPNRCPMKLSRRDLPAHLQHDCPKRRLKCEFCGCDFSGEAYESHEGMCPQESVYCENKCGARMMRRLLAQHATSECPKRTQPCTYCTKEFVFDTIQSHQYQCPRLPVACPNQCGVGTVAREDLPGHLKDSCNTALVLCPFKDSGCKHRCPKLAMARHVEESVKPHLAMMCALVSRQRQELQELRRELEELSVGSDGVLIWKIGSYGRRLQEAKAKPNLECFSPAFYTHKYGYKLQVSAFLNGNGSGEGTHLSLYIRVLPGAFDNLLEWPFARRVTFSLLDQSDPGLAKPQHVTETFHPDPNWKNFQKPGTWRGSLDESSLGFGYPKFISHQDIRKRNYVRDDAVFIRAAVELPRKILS
The experiment can be described thus: ITC (Kd […]); also MST (Kd […]), competition of biotin-OA pull-down, CETSA. The experiment is classed as binding.

The structures appear in SMILES notation.

In general, Kd refers to the constant that tells how readily two partners part at equilibrium. A low value points to a tighter complex. In turn, `COc1c(O)cc2oc(-c3ccccc3)cc(=O)c2c1O` [OA, Oroxylin A] had a Kd of 1100 nM.
